Laboratory results taken from patent publication US9938245B2 (THE TRUSTEES OF COLUMBIA UNIVERSITY IN THE CITY OF NEW YORK, priority 2014, dated 2018).

How the values were obtained:
[1] = tested on: siGPX4-induced cell death; assay: Suppression of siGPX4-induced cell death by ferroptosis inhibitors; type: cell-based; details: 10 μM U0126, 100 μM Vit. E, 100 μM DFOM, 50 μM ZIL
[2] = tested on: xenograft tumors generated from BJeLR cells; type: in vivo
Text: . To test our hypothesis that IKE represented a candidate of choice for in vivo studies, we treated xenograft tumors generated from BJeLR cells in nude mice and with IKE compared to vehicle or doxorubicin treatments (as a positive growth suppression control). […] To confirm that growth suppression caused by IKE was due to ferroptotic cell death, we looked at levels of expression of PTGS2, a gene expression marker of ferroptosis. […]

[3] = Compound half-life in liver microsomes; details: for metabolic stability (in words): mouse liver microsomes
[4] = biological target: T1, system xc− (Homo sapiens, UniProt Q9UPY5); assay: Glutamate release assay (system xc− activity); details: read-out: IC50 glutamate release; CCF-STTG1 human astrocytoma cells, 2 hour incubation
T1 sequence (Q9UPY5 1-501): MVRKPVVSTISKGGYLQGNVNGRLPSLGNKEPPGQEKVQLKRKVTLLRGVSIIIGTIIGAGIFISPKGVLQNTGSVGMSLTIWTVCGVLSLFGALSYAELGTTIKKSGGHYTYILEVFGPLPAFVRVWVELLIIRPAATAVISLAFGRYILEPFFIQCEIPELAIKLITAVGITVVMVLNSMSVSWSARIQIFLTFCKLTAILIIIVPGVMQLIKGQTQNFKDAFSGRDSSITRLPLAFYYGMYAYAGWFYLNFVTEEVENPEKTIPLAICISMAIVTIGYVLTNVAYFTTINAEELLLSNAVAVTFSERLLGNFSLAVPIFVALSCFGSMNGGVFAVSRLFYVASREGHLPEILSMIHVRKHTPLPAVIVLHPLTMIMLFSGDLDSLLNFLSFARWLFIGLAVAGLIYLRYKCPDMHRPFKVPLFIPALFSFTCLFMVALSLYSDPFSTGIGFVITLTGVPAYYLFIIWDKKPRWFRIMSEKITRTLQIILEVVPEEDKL
T1 sequence (P08195 1-529 partner): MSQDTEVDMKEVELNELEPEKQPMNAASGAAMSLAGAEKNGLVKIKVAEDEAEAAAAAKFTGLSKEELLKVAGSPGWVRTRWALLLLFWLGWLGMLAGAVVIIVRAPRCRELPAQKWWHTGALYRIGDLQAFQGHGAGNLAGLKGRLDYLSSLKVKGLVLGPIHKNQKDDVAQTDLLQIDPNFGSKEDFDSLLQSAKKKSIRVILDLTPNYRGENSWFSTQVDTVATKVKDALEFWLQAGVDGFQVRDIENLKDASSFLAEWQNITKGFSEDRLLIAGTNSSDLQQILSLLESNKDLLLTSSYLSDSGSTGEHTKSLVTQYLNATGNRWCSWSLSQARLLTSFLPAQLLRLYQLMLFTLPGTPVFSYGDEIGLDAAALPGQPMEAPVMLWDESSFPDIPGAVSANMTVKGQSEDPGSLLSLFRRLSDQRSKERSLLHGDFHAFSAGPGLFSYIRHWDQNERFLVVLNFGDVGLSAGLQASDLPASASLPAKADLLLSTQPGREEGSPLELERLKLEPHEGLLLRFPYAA

[5] = tested on: BJeLR; assay: Concentration-dependent growth inhibition (alamar blue), isogenic BJ cell lines; type: cell-based, human; details: for IC50: 2 days, alamar blue
[6] = tested on: HT1080; assay: Concentration-dependent growth inhibition (alamar blue), HT1080; type: cell-based, human; details: 2 days
Method: Assay plates were prepared by seeding either BJ-derived cell lines or HT-1080 cells at 1,500 cells per well concentration in 36 μL growth medium. Cells in the assay plates were treated with compounds by transferring 4 μL volume from the compound plate. The final concentration of compound was typically 30 μM to 0.9 nM in this 16-point, 2-fold dilution series. Assay plates were returned to the culture incubator and maintained for 2 days before adding alamar blue. […] Plates were incubated further for 16 hours to allow reduction of alamar blue, which results in the generation of red fluorescence. The fluorescence intensity was determined using a Victor 3 plate reader (Perkin Elmer) with a 535 nm excitation filter and a 590 nm emission filter.
Percent growth inhibition (% GI) was calculated from the following formula using the alamar blue fluorescence intensity values. % GI=100*(1−(X−N)/(P−N)) X, cells treated with lethal compound; N, no cells—growth media only; P, no lethal compound—cells only.
The concentration-dependent curves were generated using Prism software. Percent growth inhibition, measured using alamar blue is shown. Error bars indicate one standard deviation of triplicate data.
The results are shown in FIG. 17 and in Table 7 below.

[7] = Pharmacokinetic profile in mice; design: species or system mice (C57BL/6); details: in vivo
[8] = tested on: HT-1080 cells; assay: Cell death rescue by ALOX inhibitors and COX inhibitor; type: cell-based, human; details: inhibitor concentrations of Table 2
[9] = tested on: HT-1080 tumor; assay: HT-1080 tumor formation, mouse xenograft model; type: in vivo, athymic nude mice; details: PE 40 mg/kg SC then 30 mg/kg tail vein; erastin SC
Method: The images show representative tumors in live mice from each treatment group.
Athymic nude mice (8 weeks, Charles River) were injected with 4 million HT-1080 cells subcutaneously (SC). […] Two days later, the SC injection was repeated. Three days later, […] of vehicle or 30 mg/kg PE were administered to the mice through a tail vein. The tail vein injection was repeated three times more, once every other day, before the final tumor size was measured in both groups.
Instead, erastin was injected through the SC route using the same schedule as PE until the tumor size was measured.

[10] = tested on: HT-1080 cells; assay: Modulatory profiling with lethal molecules and cell death modulators; type: cell-based, human
[11] = tested on: BJeH, BJeHLT, BJeLR, and DRD; assay: RSL testing in 4 BJ-derived cell lines; type: cell-based, human
[12] = mouse
[13] = tested on: cellular GSH; assay: GSH depletion assay; type: cell-based; details: BJeLR cells, lethal RSL3 dose
[14] = tested on: lipid peroxides; assay: Lipid peroxide detection using BODIPY-C11; type: cell-based; details: BJeLR and other BJ-derived cells
[15] = tested on: GFP-ALOX5; assay: GFP-ALOX5 translocation assay; type: cell-based, human

In the case of `N#CC(=C(/N)Sc1ccccc1N)/C(C#N)=C(\N)Sc1ccccc1N` [Compound U0126, U0126], the “rescue of siGPX4-induced cell death” value [1] is reported as “rescued”.

For `CC(C)Oc1ccc(C(=O)Cn2ccnc2)cc1-n1c(CN2CCN(C(=O)COc3ccc(Cl)cc3)CC2)nc2ccccc2c1=O` [IKE, imidazole ketone erastin], the “tumor growth, IKE compared to doxorubicin treatment” value ([2]; 8 day study) was “no significant difference”, the “overt toxicity (body weight)” value ([2]; mouse, in vivo) was “No overt toxicity was observed” and the “expression of PTGS2 relative to doxorubicin or vehicle-treated mice” value ([2]; qPCR, xenograft) was “three-fold average increase”. For the same compound, the “tumor size compared to vehicle-treated” value ([2]; seven once-daily doses of IKE 50 mg/kg I.P., 8 day study) was “about one third of the size of vehicle-treated tumors”, the “metabolic stability (in words)” value [3] was “exceptionally high metabolic stability” and the IC50 [4] was 30 nM. For the same compound, the “Selectivity (IC50BJeH/IC50BJeLR)” value [5] was 42, the IC50 ([5]; Homo sapiens, BJeLR, 48 h) was 3 nM and the IC50 ([6]; Homo sapiens, HT-1080, 48 h) was 314 nM. It also gave a bioavailability ([7]; mouse, 5 mg/kg IKE, single IV bolus or single oral gavage, C57BL/6 mice) of 2.49%.

For `COc1ccc2c(c1)c(CC(=O)O)c(C)n2C(=O)c1ccc(Cl)cc1` [Indomethacin], the “suppression of erastin-induced cell death” value [8] was “only minimally effective in suppressing erastin lethality”.

For `CC(C)Oc1ccc(CN2CCNCC2)cc1-n1c(CN2CCN(C(=O)COc3ccc(Cl)cc3)CC2)nc2ccccc2c1=O` [PE, piperazine erastin], the “preventing HT-1080 tumor formation” value [9] was “improved efficacy over erastinin (ERA)”, the “form of cell death (modulatory profile)” value [10] was “induced a similar form of cell death as erastin” and the “RSL phenotype (selective lethality in oncogenic-RAS cells)” value [11] was “retained the RSL phenotype”. The “Half-life in liver microsomes” value [12] was 0.917 h, the IC50 [4] was 800 nM and the “Selectivity (IC50BJeH/IC50BJeLR)” value [5] was 3. It also gave an IC50 [5] of 300 nM and an IC50 [6] of 1200 nM.

With `CC(C)Oc1ccc(C(=O)CN2CCNCC2)cc1-n1c(CN2CCN(C(=O)COc3ccc(Cl)cc3)CC2)nc2ccccc2c1=O` [PKE, piperazine ketone erastin] the “metabolic stability (in words)” value [3] was “exceptionally high metabolic stability”, the half-life at 0.5 μM ([3]; mouse, liver microsomes, pH 7.4) was > 1.5 h and the IC50 [4] was 100 nM. For the same compound, the IC50 ([6]; Homo sapiens, HT-1080, 48 h) was 550 nM and the bioavailability ([7]; C57BL/6, mouse, oral, 20 mg/kg) was 0.75%.

With `COC(=O)c1ccc([C@@H]2c3[nH]c4ccccc4c3C[C@@H](C(=O)OC)N2C(=O)CCl)cc1` [RSL3] the “cellular GSH level” value [13] was “remained unaffected”, the “generation of lipid peroxides (BODIPY-C11)” value [14] was “generation of lipid peroxides” and the “translocation of GFP-ALOX5 to the nuclear membrane” value [15] was “caused GFP-ALOX5 translocation to the nuclear membrane in BJeLR cells”. For the same compound, the “RSL phenotype (selective lethality in oncogenic-RAS cells)” value [11] was “exhibited selective lethality in BJeLR cells”.

In the case of `CC(c1cc2ccccc2s1)N(O)C(N)=O` (stereo not shown) [ZIL, Zileuton], the “rescue of siGPX4-induced cell death” value [1] is reported as “rescued”.

With Vitamin E [Vit. E] the “rescue of siGPX4-induced cell death” value [1] was “rescued”.
